# Measurements from patent publication US10822586B2, “Agents and methods for treating and preventing seborrheic keratosis” (THE GENERAL HOSPITAL CORPORATION, priority 2012, dated 2020).
# Entries after “also recorded” stand apart in the source; their conditions may differ. Like-named read-outs stand apart in the source and are kept apart here.
# Assays:
# primary SK cells = test: Screening for inducers of cell death in primary SK cells (SRB assay); type: cell-based, human; conditions: for SK cell death inducer activity / viability of SK cells in the screen: 500 nM; for SK cell death inducer activity / viability of SK cells in the screen / cell death in SK cells (follow-up): 24 hrs post treatment, SRB assay
# Experimental: (§1) FIG. 2A, FIG. 2B, and FIG. 2C show data relating to the screening for small molecule inducers of cell death in primary SK cells. (FIG. 2A) 20 small molecule inhibitors (500 nM) of kinases within the MAPK-Raf and PIK3/Akt pathway were used to treat primary SK cells (in 12 well plates) harboring either FGFR3 or/and PIK3CA mutations or none. Cell death was detected 24 hrs post treatment using SRB assay. (FIG. 2B) Representative images of cells after compound treatment. (FIG. 2C) Same molecules were used on normal human keratinocytes in two different concentrations.
# (§2) (FIG. 4A) SK cells were treated with two different Akt inhibitors and cell death was measured 24 hrs post treatment using SRB assay. (FIG. 4B) Akt inhibitors were profiled against the human kinome and shared targets were identified. (FIG. 4C) Cell death in SK cells after PKC inhibition. (FIG. 4D) cell death was measured in SK cells 72 hrs after transfection with control RNAi or RNAi for Akt1 and/or 2.
# (§3) Due to the fragility of the primary cultures, RNAi transfection in a high throughput fashion turned out to be challenging, which prompted the use of a collection of specific small molecule kinase inhibitors to determine which kinase is essential for survival of SK cells but not of normal human keratinocytes. This level of selectivity was introduced in order to specifically target dependency caused by genomic alterations (both mutations and overexpression).
# As recently reported this hyperphosphorylation is due to the docking of the compound in the ATP binding site, which prevents the Akt interaction with its downstream targets^27. As shown in FIG. 5B SK cells treated with C8 indeed have a hyperphosphorylated Akt, but importantly the Akt downstream signaling was shut down (FIG. 5C).
# (§4) Small molecule kinase inhibitors usually have a high degree of specificity towards kinases in general but often these inhibitory effects are shared among several kinases, although in different doses. While this is in most of the cases considered a weakness of the approach, it can also give some evidence about other possible targets involved in the process of interest. Therefore, the inventors profiled the two effective compounds for their targets (in collaboration with Dr. N. Gray, DFCI) and determined if any other kinases might be involved in the survival of SK cells. […] In addition, the inventors were able to confirm this by down-modulation of Akt family members using an RNAi approach.
# Akt = test: Western blotting of Akt signaling in SK cells; type: cell-based, human
# Experimental: (§5) (FIG. 3A) SK and normal keratinocytes were treated with C8 for 24 hrs and SRB stained. (FIG. 3B) and (FIG. 3C). SK cells were treated with C8 for 4 hrs and subjected to Western blotting for corresponding proteins.
# human kinome = test: Profiling of Akt inhibitors against the human kinome; type: biochemical
# Experimental: as §2, §4
# [1] = tested on: normal human keratinocytes; test: Cell death in normal human keratinocytes (SRB assay); type: cell-based; conditions: C8 dose-response, 24 hrs, SRB stained
# Experimental: as §1
# as §5, with “FIG. 3A, FIG. 3B, and FIG. 3C show data relating to small molecule-mediated inhibition of Akt signaling in primary SK cells. (FIG. 3A)” for “(FIG. 3A)”
# as §3, with “overexpression). […]” for “overexpression).”
# Human SK explants = test: Topical treatment of ex vivo human SK explants; type: cell-based
# Experimental: It is now widely accepted that growth, differentiation and death of keratinocytes in culture differs in significant aspects from that in intact skin. Therefore, in order to closely reproduce the in vivo situation for SK tumors, the inventors utilized an ex vivo explant system^16 for culturing freshly excised SK lesions for up to 7 days. SK explants were treated by topical application of 1 mM of C8 for 48 hrs and stained for activated Caspase 3 to detect cell death.
# SK cells = test: Apoptosis in SK cells (cleaved PARP Western blotting, TUNEL staining); type: cell-based, human
# Experimental: (§6) (FIG. 6A) SK cells were treated with the Akt inhibitor either for 24 hrs to measure levels of cleaved PARP by Western blotting or (FIG. 6B) for 48 hrs to detect TUNEL staining. (FIG. 6C) 24 hrs post treatment pro-apoptotic Akt targets were analyzed by WB.
# It is well-established that activation of Akt in cells is known to elicit pro-survival effects through activation/suppression of different targeted pathways.
# [2] = tested on: pro-apoptotic Akt targets (FoxO1/3, MDM2, p53); test: Western blot of pro-apoptotic Akt targets in SK cells; type: cell-based, human; conditions: 24 hrs post treatment, WB
# Experimental: as §6
# Therefore, it was investigated if any of the prominent pro-apoptotic targets of Akt were involved in this process. A decrease of phosphorylated levels of FoxO1/3 as well as of phosphorylated MDM2 was observed, which correlated with increased p53 levels upon treatment with the Akt inhibitor […].
# [3] = SK cells treated 4 hrs, Western blotting
smiles,measurement,setting,value
COc1ccc(C2=N[C@@H](c3ccc(Cl)cc3)[C@@H](c3ccc(Cl)cc3)N2C(=O)N2CCNC(=O)C2)c(OC(C)C)c1 [Nutlin-3],cell death in SK cells,primary SK cells,induces cells death
O=c1c(O)c(-c2ccc(O)cc2)oc2cc(O)cc(O)c12 [kaempferol],cell death in SK cells,primary SK cells; within 48 hours,induce cell death
same,Akt signaling in SK cells,Akt,block Akt signaling
Clc1ccc(C2(c3ccc(-c4cn[nH]c4)cc3)CCNCC2)cc1 [C9],SK cell death inducer activity / viability of SK cells in the screen,primary SK cells,did not affect the viability
same,cell death in SK cells (follow-up),primary SK cells,did not show any effects
CCn1c(-c2nonc2N)nc2c(C#CC(C)(C)O)ncc(OC[C@H]3CCCNC3)c21 [GSK690693],shared targets in kinase profiling,human kinome,only members of the Akt and PKC family were shared targets
"Cc1c2ccncc2c(C)c2c1[nH]c1ccccc12 [elipticine, ellipticine]",cell death in SK cells,primary SK cells; within 48 hours,induce cell death
same,Akt signaling in SK cells,Akt,block Akt signaling
Cc1n[nH]c2ccc(-c3cncc(OC[C@@H](N)Cc4c[nH]c5ccccc45)c3)cc12 [C8],SK cell death inducer activity / viability of SK cells in the screen,primary SK cells,very strong activity
same,cell death in SK cells (follow-up),primary SK cells,dose-response killing effect
same,effect on normal keratinocytes,[1],remained unaffected even at higher doses
same,Akt downstream signaling,Akt; [3],shut down
same,phosphorylation status of Akt at T308 and 5473,Akt; [3],paradoxical hyperphosphorylation
same,shared targets in kinase profiling,human kinome,only members of the Akt and PKC family were shared targets
same,cell death in SK explants (activated Caspase 3),Human SK explants; topical application of 1 mM for 48 hrs,significant cell death; also recorded: induction of cell death
same,tissue destruction in SK explants (H&E staining),Human SK explants; topically treated with 1 mM for 48 hrs,tissue destruction
same,apoptosis as detected by cleaved PARP levels and TUNEL staining,"SK cells; 24 hrs (cleaved PARP), 48 hrs (TUNEL)",induction of apoptosis
same,TUNEL staining,"SK cells; SK cells, 48 hrs",positive
same,p53 levels,[2],increased
same,phosphorylated MDM2,[2],decrease
same,phosphorylated levels of FoxO1/3,[2],decrease
"COc1ccc(C[C@H](N)C(=O)N[C@H]2[C@@H](O)[C@H](n3cnc4c(N(C)C)ncnc43)O[C@@H]2CO)cc1 [pyromycin, puromycin]",cell death in SK cells,primary SK cells,inducer of cell death
